Reference: ChEMBL document CHEMBL2321696, “Azaindole-Based Inhibitors of Cdc7 Kinase: Impact of the Pre-DFG Residue, Val 195” (ACS Med Chem Lett, 2013)

Biological target: Glycogen synthase kinase-3 beta (Homo sapiens, UniProt P49841)
Test: Inhibition of human recombinant GSK3beta

Sequence of Glycogen synthase kinase-3 beta (P49841 whole entry): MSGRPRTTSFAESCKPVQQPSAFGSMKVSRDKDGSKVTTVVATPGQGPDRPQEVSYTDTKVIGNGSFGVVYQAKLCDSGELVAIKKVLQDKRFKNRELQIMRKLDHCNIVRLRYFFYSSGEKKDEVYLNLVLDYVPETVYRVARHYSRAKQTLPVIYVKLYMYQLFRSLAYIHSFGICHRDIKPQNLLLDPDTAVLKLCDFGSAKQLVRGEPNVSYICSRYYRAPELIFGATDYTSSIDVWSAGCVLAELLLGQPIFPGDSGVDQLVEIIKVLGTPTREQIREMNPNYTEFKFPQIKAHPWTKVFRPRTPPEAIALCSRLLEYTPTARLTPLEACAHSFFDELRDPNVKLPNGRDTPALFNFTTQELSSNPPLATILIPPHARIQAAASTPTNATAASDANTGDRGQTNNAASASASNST

Row | SMILES | Ki [nM]
1 | Clc1cc(-c2c[nH]c3ncccc23)cc(NC2CCCCC2)n1 | 58

Biological target: Cell division cycle 7-related protein kinase (Homo sapiens, UniProt O00311)
Test: Inhibition of human Cdc7 using biotin-C6linker-TPSDSLIYDDGLS as substrate after 1 hr

Sequence of Cell division cycle 7-related protein kinase (O00311 whole entry): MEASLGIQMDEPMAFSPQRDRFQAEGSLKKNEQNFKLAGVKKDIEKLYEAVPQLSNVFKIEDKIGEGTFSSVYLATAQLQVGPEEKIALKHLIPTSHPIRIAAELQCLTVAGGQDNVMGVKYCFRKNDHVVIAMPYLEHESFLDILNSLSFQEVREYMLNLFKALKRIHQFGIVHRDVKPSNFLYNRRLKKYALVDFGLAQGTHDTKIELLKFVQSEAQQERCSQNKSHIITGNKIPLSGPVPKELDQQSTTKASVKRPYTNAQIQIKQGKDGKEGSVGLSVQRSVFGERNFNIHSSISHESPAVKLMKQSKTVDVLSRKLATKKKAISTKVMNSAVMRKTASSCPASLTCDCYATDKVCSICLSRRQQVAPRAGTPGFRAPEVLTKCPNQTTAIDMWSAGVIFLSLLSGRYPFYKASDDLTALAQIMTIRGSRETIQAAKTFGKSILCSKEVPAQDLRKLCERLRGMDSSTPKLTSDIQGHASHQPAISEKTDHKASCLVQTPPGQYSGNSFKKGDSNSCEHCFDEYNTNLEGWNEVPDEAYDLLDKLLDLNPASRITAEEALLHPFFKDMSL

Row | SMILES | Ki [nM]
2 | O=c1cc(-c2c[nH]c3ncccc23)cc(NC2CCCCC2)[nH]1 | 0.28
3 | N#Cc1cc(-c2c[nH]c3ncccc23)cc(NC2CCCCC2)n1 | 7.7
4 | N#Cc1cc(-c2c[nH]c3ncccc23)cc(NCc2ccccc2)n1 | 1.4
5 | N#Cc1cc(-c2c[nH]c3ncccc23)cc(N[C@H]2CC[C@H](O)CC2)n1 | 5.5
6 | NC(=O)c1cc(-c2c[nH]c3ncccc23)cc(N[C@H]2CC[C@H](O)CC2)n1 | 67
7 | Clc1cc(-c2c[nH]c3ncccc23)cc(NC2CCCCC2)n1 | 0.9
8 | c1cnc2[nH]cc(-c3ccnc(NC4CCCCC4)c3)c2c1 | 8.7
9 | Cc1cc(-c2c[nH]c3ncccc23)cc(NC2CCCCC2)n1 | 13
10 | Cc1cc(-c2c[nH]c3ncccc23)cc(NCc2ccccc2)n1 | 15
11 | Cc1cc(-c2c[nH]c3ncccc23)cc(N[C@H]2CC[C@H](O)CC2)n1 | 27
12 | Fc1cc(-c2c[nH]c3ncccc23)cc(NC2CCCCC2)n1 | 3.2
13 | O[C@H]1CC[C@H](Nc2cc(-c3c[nH]c4ncccc34)cc(F)n2)CC1 | 1.7
14 | N[C@H]1CC[C@H](Nc2cc(-c3c[nH]c4ncccc34)cc(F)n2)CC1 | 3.4
